Earlier results in patent US20260373135A1, “Methods of Treatment with Tradipitant” (Vanda Pharmaceuticals Inc., priority 2022, published 2026).

Assays:
CYP3A4 [1] = biological target: T1, CYP3A4 (Homo sapiens, UniProt P08684); details: renal transplant patients; cited from earlier work
CYP3A4 [2] = biological target: T1, CYP3A4; details: human liver microsomes in vitro; cited from earlier work
CYP3A4 [3] = biological target: T1, CYP3A4; details: breast cancer patients; n=16 *22, n=116 wt; cited from earlier work

T1 sequence (P08684 whole entry): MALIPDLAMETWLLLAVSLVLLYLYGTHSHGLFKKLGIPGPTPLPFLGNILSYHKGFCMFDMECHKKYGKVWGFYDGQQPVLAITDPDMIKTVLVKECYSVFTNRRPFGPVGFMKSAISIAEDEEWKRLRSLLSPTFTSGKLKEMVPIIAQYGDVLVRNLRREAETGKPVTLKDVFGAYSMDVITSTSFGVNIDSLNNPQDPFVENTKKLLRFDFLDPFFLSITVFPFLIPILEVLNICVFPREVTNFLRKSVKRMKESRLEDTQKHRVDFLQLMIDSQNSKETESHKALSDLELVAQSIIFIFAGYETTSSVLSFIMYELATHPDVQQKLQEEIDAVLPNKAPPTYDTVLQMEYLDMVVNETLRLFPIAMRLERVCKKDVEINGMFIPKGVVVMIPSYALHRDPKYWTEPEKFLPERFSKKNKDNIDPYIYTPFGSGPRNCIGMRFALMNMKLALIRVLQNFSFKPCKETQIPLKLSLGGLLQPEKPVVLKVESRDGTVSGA

| Compound | clearance in CYP3A4*22 carriers (CYP3A4 [1]) | further results |
| --- | --- | --- |
| C=CC[C@@H]1/C=C(\C)C[C@H](C)C[C@H](OC)[C@H]2O[C@@](O)(C(=O)C(=O)N3CCCC[C@H]3C(=O)O[C@H](/C(C)=C/[C@@H]3CC[C@@H](O)[C@H](OC)C3)[C@H](C)[C@@H](O)CC1=O)[C@H](C)C[C@@H]2OC [tacrolimus] | reduced | – |
| CO[C@H]1C[C@@H]2CC[C@@H](C)[C@@](O)(O2)C(=O)C(=O)N2CCCC[C@H]2C(=O)O[C@H]([C@H](C)C[C@@H]2CC[C@@H](O)[C@H](OC)C2)CC(=O)[C@H](C)/C=C(\C)[C@@H](O)[C@@H](OC)C(=O)[C@H](C)C[C@H](C)/C=C/C=C/C=C/1C [sirolimus] | – | metabolic rate with CYP3A4*22 (CYP3A4 [2]): lower |
| CO[C@H]1C[C@@H]2CC[C@@H](C)[C@@](O)(O2)C(=O)C(=O)N2CCCC[C@H]2C(=O)O[C@H]([C@H](C)C[C@@H]2CC[C@@H](OCCO)[C@H](OC)C2)CC(=O)[C@H](C)/C=C(\C)[C@@H](O)[C@@H](OC)C(=O)[C@H](C)C[C@H](C)/C=C/C=C/C=C/1C [everolimus] | lower clearance | – |
| CC/C(=C(\c1ccc(O)cc1)c1ccc(OCCNC)cc1)c1ccccc1 [Endoxifen] | – | blood concentrations in CYP3A4*22 carriers vs *1/*1 (CYP3A4 [3]): increased |
